Results: US20250084063A1 (Incyte Corporation, priority 2023, published 2025)

What was measured:
Assay type in all cases: cell-based
[1] = target: T1, MRGPRX2 (Homo sapiens, UniProt Q96LB1); test: MRGPRX2 β-Arrestin assay; set-up: host or cells: PathHunter CHO-K1; conditions: PathHunter CHO-K1 MRGPRX2 β-Arrestin cell line; agonist Cortistatin 14 0.25 μM
T1 sequence (Q96LB1 1-330): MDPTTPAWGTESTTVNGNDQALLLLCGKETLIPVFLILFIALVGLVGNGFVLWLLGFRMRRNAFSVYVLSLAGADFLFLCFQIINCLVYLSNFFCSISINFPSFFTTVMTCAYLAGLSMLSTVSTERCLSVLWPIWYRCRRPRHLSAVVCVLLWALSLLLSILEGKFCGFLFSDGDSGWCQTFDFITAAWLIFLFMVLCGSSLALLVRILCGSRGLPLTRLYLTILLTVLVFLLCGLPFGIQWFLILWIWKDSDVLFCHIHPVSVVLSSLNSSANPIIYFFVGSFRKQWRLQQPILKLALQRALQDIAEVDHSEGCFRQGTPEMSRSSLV
Source text: Example C: MRGPRX2 β-Arrestin Assay
This assay measures compound inhibition of β-Arrestin recruitment, which is part of the G protein-independent pathway that results from the ligand-activated GPCR phosphorylation by specific GPCR kinases. The PathHunter CHO-K1 MRPGRX2 B-Arrestin Cell line stably expressing ProLink tagged MRGPRX2 and Enzyme Acceptor Tagged B-Arrestin was purchased from Eurofins DiscoverX, (Fremont, CA).
The cells were maintained in culture medium from the Europhins DiscoverX Cell Culture Kit-107 which includes FBS, hygromycin B and G418. For the assay, the cells were harvested and were resuspended with Cell Plating Reagent 2 (Eurofins DiscoverX). Cells were added 10000 cells in 25 µL/well to a 384-well black cell culture plate (Greiner VWR, Radnor, PA) which contained 125 nL/well of compound at a selected serially diluted concentration range or DMSO. The plate was incubated at 37° C. with 5% CO2 for 1 h. 2 μL/well of agonist Cortistatin 14 was diluted in Protein Dilution Buffer, (Eurofins DiscoverX) for a final concentration of 0.25 μM, was added and the plate was incubated at 37° C. with 5% CO2 for 90 min. 14 μL/well of Detection Reagent Mix (PathHunter Detection Kit, Eurofins DiscoverX) was added to the plates and further incubated for 1 h in the dark. Plates were read on the PHERAstar microplate reader (BMG Labtech Cary, NC) measuring luminescence 0.1 to 1 second per well. Data was normalized using DMSO only wells and wells with high concentration of reference antagonist as controls. Compound IC50 curves were globally fitted with 3- or 4-parameter Hill equation in a Genedata Screener (Genedata Basel, Switzerland).

[2] = target: T1, MRGPRX2; test: MRGPRX2 IP1 HTRF assay; set-up: host or cells: CHO-K1; conditions: CHO-K1 cells stably expressing human MRGPRX2; IP1 accumulation, agonist Cortistatin 14 1 μM
Source text: Example B: MRGPRX2 IP1 HTRF Assay
This assay measures compound inhibition of myo-Inositol 1 phosphate (IP1) accumulation in CHO-K1 cells. Chinese hamster ovary (CHO-K1) cells stably expressing human MRGPRX2 were purchased from GenScript (Piscataway, NJ).
For the HTRF IP1 determination, an IP-One GqKit (Perkin Elmer Cisbio, Waltham, MA), which includes all reagents and buffers in this protocol, was used. The cells were maintained in culture medium (Ham's F-12K) containing 10% (v/v) FBS, and 200 μg/mL Zeocin. For the assay, the cells were harvested and resuspended in culture medium with 2% FBS and without Zeocin, then were passed through a 40 μm filter. Cells were added at 20000 cells in a 5 μL/well to a 384-well white small volume cell culture plate (Greiner VWR, Radnor, PA) which contained 50 nL/well of test compound serially diluted at a selected concentration range in DMSO. 5 μL/well of prepared 2× Stimulation Buffer2 was then added to plates and was incubated at 37° C. with 5% CO2 for 1 h. 5 μL/well of agonist Cortistatin 14 (Bio-TechneR&D Systems, Minneapolis, MN) in 1× Stimulation Buffer 2, for a 1 μM final concentration, was then added to plates and incubated at 37° C. with 5% CO2 for 1 h. 6 μL/well of 1:20 diluted Detection Reagent Mix (d2 and Cryptate) was added to the plates and incubated for 1 h in the dark. Plates were read on the PHERAstar microplate reader (BMG Labtech Cary, NC) to determine the HTRF ratio of the acceptor and donor emission signals. The IP1 concentrations were calculated from a standard curve following the IP-One GQ kit instructions. Wells with DMSO only and wells with high concentration of reference antagonist were used as controls for normalization. Compound IC50 curves were globally fitted with 3- or 4-parameter Hill equation in a Genedata Screener (Genedata Basel, Switzerland).

[3] = target: T1, MRGPRX2; test: MRGPRX2 FLIPR calcium mobilization assay; set-up: host or cells: CHO-K1; conditions: CHO-K1 cells stably expressing human MRGPRX2; Ca2+ release, agonist Cortistatin-14 at EC80
Protocol: Example A. MRGPRX2 FLIPR Calcium Mobilization Assay
Chinese hamster ovary (CHO-K1) cells stably expressing human MRGPRX2 were purchased from Genescript (Piscataway, NJ). The cells were maintained in culture medium (Ham's F-12K) containing 10% (v/v) FBS, 200 μg/mL Zeocin, 100 units/mL penicillin G and 100 μg/mL streptomycin (Life Technologies, Carlsbad, CA). For the assay, the cells were harvested and resuspended with culture medium without Zeocin before plating at 8000 cells per well in 20 μL in 384-well black clear bottom cell culture plates (VWR, Radnor, PA). After 24 h culture at 37° C. and 5% CO2, the cells were loaded with 20 μL/well of calcium dye (FLIPR Calcium 6 Assay Kit, Molecular Devices, San Jose, CA) diluted in loading buffer (1×Hank's Balanced Salt Solution (HBSS), 5 mM probenecid, 20 mM 4-(2-hydroxyethyl)-1-piperazineethanesulfonic acid (HEPES), pH 7.4, VWR, Radnor, PA) followed with 45 min incubation at 37° C. and 40 min at room temperature in the dark. Cells were then treated with the addition of 10 uL/well test compounds with a range of increasing concentrations diluted in the assay buffer (1×HBSS, 20 mM HEPES, pH 7.4, VWR, Radnor, PA) with FLIPR Penta (Molecular Devices. San Jose, CA) and incubated for 30 min. at room temperature. Ca^2+ release was measured with FLIPR Penta with 10 seconds basal fluorescence measurement, then 12.5 μL of 5× agonist Cortistatin-14 (Tocris, Minneapolis, MN) at final concentration corresponding to the EC80 were added followed with continued fluorescence signal monitoring for an additional 110 seconds. The base line adjusted (median of first 10s base line) max value of the Relative Fluorescence Unit (RFU) was plotted against compound concentrations. Wells with no compound were served as the positive controls, and wells with high concentration of reference antagonist were used as negative controls. IC50 curves were globally fitted with 3- or 4-parameter Hill equation in a Genedata Screener (Genedata Basel, Switzerland).

OC1(C(F)(F)F)CC(CNc2cc(C(F)(F)F)nc3ccc(Cl)cc23)(c2ccccc2)C1 (centres unmarked) [Example 66, 3-(((6-Chloro-2-(trifluoromethyl)quinolin-4-yl)amino)methyl)-3-phenyl-1-(trifluoromethyl)cyclobutan-1-ol] was tested. Which IC50 [1] did it give?
The IC50 was 0.1 to 100 nM.

And the IC50 [2]?
The IC50 was 0.1 to 100 nM.

Which IC50 [1] does the source give for [O-][n+]1ccc(CN2CC(CNc3cc(C(F)(F)F)nc4ccc(Cl)cc34)(c3ccc(F)cc3)C2)cc1 [Example 95, 4-((3-(((6-Chloro-2-(trifluoromethyl)quinolin-4-yl)amino)methyl)-3-(4-fluorophenyl)azetidin-1-yl)methyl)pyridine 1-oxide] here?
Its IC50 is 0.1 to 100 nM.

And the IC50 [2]?
The IC50 was 0.1 to 100 nM.

How did the IC50 [1] turn out when [2H]C([2H])([2H])NC(=O)N1CC(CNc2cc(C(F)(F)F)nc3ccc(Cl)cc23)(n2ncc3c2CCC3)C1 [Example 69, 3-(((6-Chloro-2-(trifluoromethyl)quinolin-4-yl)amino)methyl)-3-(5,6-dihydrocyclopenta[c]pyrazol-1(4H)-yl)-N-(methyl-d3)azetidine-1-carboxamide] was run?
Its IC50 is 0.1 to 100 nM.

Which IC50 [1] does the source give for CN1CC(C(=O)NC2CC(CNc3cc(C(F)(F)F)nc4ccc(Cl)cc34)(c3ccccc3)C2)C1 (centres unmarked) [Example 75, N-(3-(((6-Chloro-2-(trifluoromethyl)quinolin-4-yl)amino)methyl)-3-phenylcyclobutyl)-1-methylazetidine-3-carboxamide] here?
Its IC50 is 0.1 to 100 nM.

Which IC50 [1] does the source give for O=C(NC1CC(CNc2cc(C(F)(F)F)nc3ccc(Cl)cc23)(c2ccccc2)C1)C(O)C(F)(F)F (centres unmarked) [Example 77, N-(3-(((6-Chloro-2-(trifluoromethyl)quinolin-4-yl)amino)methyl)-3-phenylcyclobutyl)-3,3,3-trifluoro-2-hydroxypropanamide] here?
The IC50 was 0.1 to 100 nM.

How did the IC50 [1] turn out when COCCN1CC(CNc2cc(C(F)(F)F)nc3ccc(Cl)cc23)(c2ccc(F)cc2)C1 [Example 92, 6-Chloro-N-((3-(4-fluorophenyl)-1-(2-methoxyethyl)azetidin-3-yl)methyl)-2-(trifluoromethyl)quinolin-4-amine] was run?
Its IC50 is 0.1 to 100 nM.

With FC(F)(F)c1cc(NCC2(n3ccc(C(F)(F)F)n3)CNC2)c2cc(Cl)ccc2n1 [Example 68, 6-Chloro-2-(trifluoromethyl)-N-((3-(3-(trifluoromethyl)-1H-pyrazol-1-yl)azetidin-3-yl)methyl)quinolin-4-amine] as the molecule, how does the IC50 [1] read?
The IC50 was 100 to 1000 nM.

Cn1nccc1NC1CC(CNc2cc(C(F)(F)F)nc3ccc(Cl)cc23)(c2ccc(F)cn2)C1 (centres unmarked) [Example 72, 6-Chloro-N-((1-(5-fluoropyridin-2-yl)-3-((1-methyl-1H-pyrazol-5-yl)amino)cyclobutyl)methyl)-2-(trifluoromethyl)quinolin-4-amine] was tested. Which IC50 [1] did it give?
Its IC50 is 0.1 to 100 nM.

For NC(=O)N1CC(CNc2cc(C(F)(F)F)nc3ccncc23)(c2ccc(F)cc2)C1 [Example 65, 3-(4-Fluorophenyl)-3-(((2-(trifluoromethyl)-1,6-naphthyridin-4-yl)amino)methyl)azetidine-1-carboxamide], which IC50 [1] is on record?
Its IC50 is 100 to 1000 nM.

Which results are given for COc1cnn(C2(CNc3cc(C(F)(F)F)nc4ccc(Cl)cc34)CN(C(N)=O)C2)c1 [Example 102, 3-(((6-Chloro-2-(trifluoromethyl)quinolin-4-yl)amino)methyl)-3-(4-methoxy-1H-pyrazol-1-yl)azetidine-1-carboxamide]?
IC50 [3]: 0.1 to 100 nM; IC50 [2]: 100 to 1000 nM

Which IC50 [3] does the source give for NC(=O)N1CC(CNc2cc(C(F)(F)F)nc3cc(C(F)(F)F)ccc23)(c2ccc(F)cn2)C1 [Example 63, 3-(((2,7-Bis(trifluoromethyl)quinolin-4-yl)amino)methyl)-3-(5-fluoropyridin-2-yl)azetidine-1-carboxamide] here?
Its IC50 is 100 to 1000 nM.

And the IC50 [2]?
The IC50 was greater than 1000 nM.

Which IC50 [1] does the source give for [2H]C([2H])([2H])NC(=O)N1CC(CNc2cc(C(F)(F)F)nc3ccc(Cl)cc23)(n2cc(CC#N)cn2)C1 [Example 71, 3-(((6-Chloro-2-(trifluoromethyl)quinolin-4-yl)amino)methyl)-3-(4-(cyanomethyl)-1H-pyrazol-1-yl)-N-(methyl-d3)azetidine-1-carboxamide] here?
The IC50 was 100 to 1000 nM.

Which IC50 [3] does the source give for NC(=O)N1CC(CNc2cc(C(F)(F)F)nc3cccc(F)c23)(c2ccc(F)cn2)C1 [Example 60, 3-(((5-Fluoro-2-(trifluoromethyl)quinolin-4-yl)amino)methyl)-3-(5-fluoropyridin-2-yl)azetidine-1-carboxamide] here?
Its IC50 is 100 to 1000 nM.

And the IC50 [2]?
Its IC50 is greater than 1000 nM.

With CN1CCC(C(=O)NC2CC(CNc3cc(C(F)(F)F)nc4ccc(Cl)cc34)(c3ccccc3)C2)CC1 (centres unmarked) [Example 76, N-(3-(((6-Chloro-2-(trifluoromethyl)quinolin-4-yl)amino)methyl)-3-phenylcyclobutyl)-1-methylpiperidine-4-carboxamide] as the molecule, how does the IC50 [1] read?
Its IC50 is 0.1 to 100 nM.

How did the IC50 [3] turn out when Cc1cccc2nc(C(F)(F)F)cc(NCC3(c4ccc(F)cn4)CN(C(N)=O)C3)c12 [Example 62, 3-(5-Fluoropyridin-2-yl)-3-(((5-methyl-2-(trifluoromethyl)quinolin-4-yl)amino)methyl)azetidine-1-carboxamide] was run?
Its IC50 is greater than 1000 nM.

And the IC50 [2]?
The IC50 was greater than 1000 nM.

Which IC50 [3] does the source give for NS(=O)(=O)N1CCC(CNc2cc(C(F)(F)F)nc3ccc(Cl)cc23)(c2ccc(F)cn2)CC1 [Example 100, 4-(((6-Chloro-2-(trifluoromethyl)quinolin-4-yl)amino)methyl)-4-(5-fluoropyridin-2-yl) piperidine-1-sulfonamide] here?
Its IC50 is 0.1 to 100 nM.

What about the IC50 [2] of the same molecule?
The IC50 was 0.1 to 100 nM.
